Data from publication PMC6131557, “Selective Cytotoxicity of Dihydroorotate Dehydrogenase Inhibitors to Human Cancer Cells Under Hypoxia and Nutrient-Deprived Conditions” (Frontiers in Pharmacology, 2018).

Experiments:
PC-3 = experiment: 39-cancer cell panel assay: PC-3; assay type: cell-based; details: Homo sapiens, Pro
SNB-75 = experiment: 39-cancer cell panel assay: SNB-75; assay type: cell-based; details: Homo sapiens, CNS
U251 = experiment: 39-cancer cell panel assay: U251; assay type: cell-based; details: Homo sapiens, U-251, CNS
MKN74 = experiment: 39-cancer cell panel assay: MKN74; assay type: cell-based; details: Homo sapiens, MKN-74, St
SF-539 = experiment: 39-cancer cell panel assay: SF-539; assay type: cell-based; details: Homo sapiens, CNS
HCC2998 = experiment: 39-cancer cell panel assay: HCC2998; assay type: cell-based; details: Homo sapiens, HCC 2998, Co
NCI-H460 = experiment: 39-cancer cell panel assay: NCI-H460; assay type: cell-based; details: Homo sapiens, Lu
HBC-4 = experiment: 39-cancer cell panel assay: HBC-4; assay type: cell-based; details: Homo sapiens, HBC4, Br
A549 = experiment: 39-cancer cell panel assay: A549; assay type: cell-based; details: Homo sapiens, Lu
NCI-H522 = experiment: 39-cancer cell panel assay: NCI-H522; assay type: cell-based; details: Homo sapiens, Lu
[1] = Cytotoxicity assay (Cell Counting Kit-8 / WST-8) on DLD-1 cells; assay type: cell-based, human; details: human, DLD-1 colorectal adenocarcinoma cells; DLD-1, original medium, normal oxygen, 100 μM, 24 h

| Compound | GI50 (PC-3) [µM] | GI50 (SNB-75) [µM] | GI50 (U251) [µM] | GI50 (MKN74) [µM] | GI50 (SF-539) [µM] | GI50 (HCC2998) [µM] | GI50 (NCI-H460) [µM] | GI50 (HBC-4) [µM] | GI50 (A549) [µM] | GI50 (NCI-H522) [µM] | viability at 24 h, 100 µM [1] [%] |
| --- | --- | --- | --- | --- | --- | --- | --- | --- | --- | --- | --- |
| CC(C)=CCC/C(C)=C/CC/C(C)=C/Cc1c(O)c(Cl)c(C)c(C=O)c1O [Compound 8] | 1.2 | 0.7 | 0.43 | 1.9 | 0.24 | 12 | 0.21 | 2.2 | 0.77 | 1.2 |  |
| C/C(=C\Cc1c(O)c(Cl)c(C)c(C=O)c1O)CC/C=C(\C)[C@@H]1CC(=O)C(C)(C)O1 [Compound 1, ascofuranone] | 13 | 23 | 1.5 | 13 | 1.7 | 17 | 2 | 9.1 | 7.6 | 8.4 | ~80 |
